Measured values published in patent US11737461B2, “Citrate perhydrates and uses thereof” (BIOREM ENGINEERING SA, priority 2018, dated 2023).

What was measured:
[1] = pH of an aqueous solution of the compound (pH meter); type: physicochemical; settings: for pH: sample solution of Table 13 (0.2 M H2O2 and/or citrate)
[2] = test system: Botrytis cinerea; settings: samples at equivalent concentrations (0.2 M)
[3] = other compound containing hydrogen peroxide, dissolved; cited from earlier work

| Compound | pH [1] | MIC Botrytis [2] | pH of an aqueous solution ([1]; diluted 20× in water) | pH obtained by dissolving [3] |
| --- | --- | --- | --- | --- |
| OO [Hydrogen peroxide] | 6.4 | non actif | – | – |
| O=C(O)CC(O)(CC(=O)O)C(=O)O [Acide citrique, Citric acid] | – | non actif | – | – |
| O.O.O=C([O-])CC(O)(CC(=O)[O-])C(=O)[O-].OO.[Na+].[Na+].[Na+] [trisodium citrate monoperhydrate dihydrate] | 8.2 | 72 mM | 7.6 (±0.3) | – |
| O.O.O.O=C([O-])CC(O)(CC(=O)[O-])C(=O)O.O=C([O-])CC(O)(CC(=O)[O-])C(=O)O.[Na+].[Na+].[Na+].[Na+] [Disodium citrate sesquihydrate] | 4.9 | non actif | – | – |
| anhydrous disodium citrate monoperhydrate [disodium citrate perhydrate] | – | 108 mM | – | – |
| O=C([O-])[O-].O=C([O-])[O-].OO.OO.OO.[Na+].[Na+].[Na+].[Na+] [sodium percarbonate] | – | – | – | 11 |
